Data from BindingDB's records for doi:10.3109/14756366.2011.591290 (Agri Ibrahim Cecen University, 2012).
pKi: −log10 of the molar value.

Experiments:
Assay in all cases: CA Activity Assay
Settings in all cases: pH 7.4; 25 °C
[1] = target: Carbonic anhydrase 1 (Homo sapiens, UniProt P00915)
[2] = target: Carbonic anhydrase 6 (Homo sapiens, UniProt P23280)
[3] = target: Carbonic anhydrase 2 (Homo sapiens, UniProt P00918)

Sequence of Carbonic anhydrase 1 (P00915 whole entry): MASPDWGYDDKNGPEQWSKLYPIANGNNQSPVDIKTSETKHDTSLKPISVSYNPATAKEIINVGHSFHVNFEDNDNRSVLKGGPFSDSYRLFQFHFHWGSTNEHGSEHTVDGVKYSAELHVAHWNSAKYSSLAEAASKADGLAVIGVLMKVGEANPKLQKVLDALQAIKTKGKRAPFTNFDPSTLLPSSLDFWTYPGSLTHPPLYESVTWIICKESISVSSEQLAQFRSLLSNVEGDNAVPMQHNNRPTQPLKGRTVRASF
Sequence of Carbonic anhydrase 6 (P23280 whole entry): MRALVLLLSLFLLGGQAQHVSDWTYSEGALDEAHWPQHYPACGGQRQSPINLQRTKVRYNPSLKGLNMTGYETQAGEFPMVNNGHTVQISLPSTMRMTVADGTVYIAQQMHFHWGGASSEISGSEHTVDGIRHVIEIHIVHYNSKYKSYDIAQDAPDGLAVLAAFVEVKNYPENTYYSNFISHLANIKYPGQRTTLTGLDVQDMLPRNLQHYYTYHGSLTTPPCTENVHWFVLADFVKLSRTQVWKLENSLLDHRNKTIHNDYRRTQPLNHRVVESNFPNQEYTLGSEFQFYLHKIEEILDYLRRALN

SMILES | pKi [1] | pKi [2] | pKi [3]
NC1CCc2cc(O)c(O)cc2C1 (stereo unspecified) | 4.39 | 5.94 | 6.36
NC1CCc2c(ccc(O)c2O)C1 (stereo unspecified) [6-Amino-5,6,7,8-tetrahydro-naphthalene-1,2-diol] | 4.35 | 6.01 | 6.42
NC1Cc2cc(Br)c(Br)cc2C1 [CA inhibitor, 5] |  | 6.11 | 3.33
NC1Cc2ccc(Br)cc2C1 (stereo unspecified) [CA inhibitor, 6] | 3.79 | 6.24 | 3.84
